Data: paper PMC9501633, “Synthesis, Characterisation and Mechanism of Action of Anticancer 3-Fluoroazetidin-2-ones” (Pharmaceuticals, 2022)
“And” between values parts separate entries of the source, which are not always exact repeats. Identical values can stand only once. Like-named read-outs stand apart in the source and are kept apart here.

Tests used:
[1] = test system: MCF-7 human breast cancer cells; test: AlamarBlue cell viability assay; type: cell-based; settings: for IC50: MCF-7, 72 h
Protocol: The antiproliferative potential of the synthesised 3-fluoro β-lactams 26–35 and 3,3-difluoro β-lactams 36–45 was evaluated in MCF-7 human breast cancer cells using the AlamarBlue assay, with CA-4 as reference compound (Figure 3). […] The results for the preliminary in vitro antiproliferative screen for 3-fluoro β-lactam compounds (26–29), which contain different substituents at the para position in the B ring, are presented in Figure 3A.
Cells were seeded at a density of 5 × 10^3 cells/well (MCF-7 and MDA-MB-231) and 1 × 10^4 cells/well (HEK-293T) in 96-well plates (200 μL per well). After 24 h, cells were then treated with medium alone, with vehicle (1% ethanol (v/v)) or with CA-4 or β-lactam compounds at 1 μM and 10 μM concentrations. […] Cell proliferation for MCF-7 cells was analysed with the AlamarBlue assay (Invitrogen Corp.) as previously described by us. After 72 h, AlamarBlue (10% (v/v)) was added to each well, and plates were incubated for 3–5 h at 37 °C in the dark. Fluorescence results were obtained with a 96-well fluorimeter with excitation at 530 nm and emission at 590 nm with results recorded as percentage viability relative to vehicle control (100%). Dose–response curves were obtained and IC50 values (concentration of drug resulting in 50% reduction in cell survival) were calculated using Prism (GraphPad Software, Inc., La Jolla, CA, USA).
Figure 3 Preliminary cell viability data for 3-fluoro and 3,3-difluoro β-lactam compounds. (A) 3-Fluoro β-lactam compounds containing different para-substituent ring B 26–29; 3-fluoro β-lactam compounds containing different meta-substituent ring B 30, 32–35; (B) 3-difluoro β-lactam compounds containing different para-substituent ring B 36–39; 3-difluoro β-lactam compounds containing different meta-substituent ring B 40, 42–45 in MCF-7 breast cancer cells. Cell proliferation of MCF-7 cells was determined with an AlamarBlue assay (seeding density […] for 96-well plates). Compound concentrations of either 10 μM or 1 μM for 72 h were used to treat the cells with control wells containing vehicle ethanol (1% v/v) and CA-4 (10 μM and 1 μM). The mean value for three experiments is shown with the ± S.E.M. for three independent experiments.

NCI 60 cell line panel = test: NCI 60 cell line screen, whole panel; type: cell-based; settings: for MG-MID TGI / GI50 / CC50: 48 h; for GI50: read-out: MG-MID GI50
Protocol: The antiproliferative effects of selected compounds 33, 37 and 43 were initially evaluated in the NCI 60 cell line screen at 10 μM concentration (see Supplementary Materials Table S3). […] . […] .
Compound 33 was next selected for evaluation in the NCI 60 cell line five-dose screen. The GI50 (50% growth inhibition), TGI (total growth inhibition) and LC50 (50% lethal concentration) were determined in the NCI panel of 60 cell lines, using the sulphorhodamine B (SRB) protein assay (Table 5). The GI50 value provides the growth inhibition of the selected compound, while the cytotoxic effect is evaluated in the LC50 value. […] . […] . Glioblastoma is an aggressive and fast-growing brain tumour with a median survival time of 9–16 months from diagnosis, and these tumours quickly evolve resistance to temozolomide chemotherapy, which is the only FDA-approved treatment. […] . Further mechanistic and cellular studies were carried out and are described below.
(§1) aData obtained from NCI in vitro human tumour cell screen 1 dose assay (10 µM). 33 (NCI

RPMI-8226 = test: NCI 60 cell line screen, Leukaemia; type: cell-based, human
SR = test: NCI 60 cell line screen, Leukaemia; type: cell-based, human
HOP-92 = test: NCI 60 cell line screen, NSCLung; type: cell-based, human
NCI-H226 = test: NCI 60 cell line screen, NSCLung; type: cell-based, human
NCI-H322M = test: NCI 60 cell line screen, NSCLung; type: cell-based, human
NCI-H460 = test: NCI 60 cell line screen, NSCLung; type: cell-based, human
SF-268 = test: NCI 60 cell line screen, CNS; type: cell-based, human
SF-539 = test: NCI 60 cell line screen, CNS; type: cell-based, human
U251 = test: NCI 60 cell line screen, CNS; type: cell-based, human
MALME-3M = test: NCI 60 cell line screen, Melanoma; type: cell-based, human
SK-MEL-28 = test: NCI 60 cell line screen, Melanoma; type: cell-based, human
OVCAR-4 = test: NCI 60 cell line screen, Ovarian; type: cell-based, human
SK-OV-3 = test: NCI 60 cell line screen, Ovarian; type: cell-based, human
ACHN = test: NCI 60 cell line screen, Renal; type: cell-based, human; settings: one dose 10 µM
RXF 393 = test: NCI 60 cell line screen, Renal; type: cell-based, human
UO-31 = test: NCI 60 cell line screen, Renal; type: cell-based, human
T-47D = test: NCI 60 cell line screen, Breast; type: cell-based, human
leukaemia panel = test: NCI 60 cell line one-dose screen, panel mean; type: cell-based; settings: Homo sapiens, one dose 10 μM, read-out: mean growth inhibition
Protocol: The antiproliferative effects of selected compounds 33, 37 and 43 were initially evaluated in the NCI 60 cell line screen at 10 μM concentration (see Supplementary Materials Table S3).
as §1

[2] = 5-dose assay, mean-graph midpoint
[3] = Homo sapiens, 60 cell, 5-dose assay, mean-graph midpoint

SMILES: COc1ccc(/C=C\c2cc(OC)c(OC)c(OC)c2)cc1O [CA-4, combretastatin A-4, reference compound]
- IC50 ([1]; Homo sapiens, MCF7, 72 h): 3 nM
- IC50 [1]: 3.5 nM
- MG-MID TGI (NCI 60 cell line panel; [2]): 10.3 µM
- GI50 (NCI 60 cell line panel; [3]): 99 nM

SMILES: COc1ccc(C2C(F)C(=O)N2c2cc(OC)c(OC)c(OC)c2)cc1F (stereo not shown) [Compound 33, 3-Fluoro-4-(3-fluoro-4-methoxyphenyl)-1-(3,4,5-trimethoxyphenyl)azetidin-2-one]
- viability at 1 µM ([1]; Homo sapiens, MCF7, 72 h, MCF-7, 1 μM, 72 h, read-out: viable cells remaining): 37%
- IC50 ([1]; Homo sapiens, MCF7, 72 h): 95 nM
- TGI (RPMI-8226; 5-dose, 48 h): 37.3 µM
- GI50 (RPMI-8226; Homo sapiens, 5-dose, 48 h): 55 nM
- inhibition at 10 µM (RPMI-8226; Homo sapiens, one dose 10 µM): 84.7%
- Growth % (RPMI-8226; one dose 10 µM): 15.32%
- TGI (SR; 5-dose, 48 h): >100 µM
- GI50 (SR; Homo sapiens, 5-dose, 48 h): 40.8 nM
- inhibition at 10 µM (SR; Homo sapiens, one dose 10 µM): 86.7%
- Growth % (SR; one dose 10 µM): 13.28%
- TGI (HOP-92; 5-dose, 48 h): 63.9 µM
- GI50 (HOP-92; Homo sapiens, 5-dose, 48 h): 266 nM
- inhibition at 10 µM (HOP-92; Homo sapiens, one dose 10 µM): 67.7%
- Growth % (HOP-92; one dose 10 µM): 32.28%
- TGI (NCI-H226; 5-dose, 48 h): >100 µM
- GI50 (NCI-H226; Homo sapiens, 5-dose, 48 h): 22.2 µM
- inhibition at 10 µM (NCI-H226; Homo sapiens, one dose 10 µM): 41%
- Growth % (NCI-H226; one dose 10 µM): 58.99%
- TGI (NCI-H322M; 5-dose, 48 h): >100 µM
- GI50 (NCI-H322M; Homo sapiens, 5-dose, 48 h): 1630 nM
- inhibition at 10 µM (NCI-H322M; Homo sapiens, one dose 10 µM): 53.5%
- Growth % (NCI-H322M; one dose 10 µM): 46.45%
- TGI (NCI-H460; 5-dose, 48 h): 91.1 µM
- GI50 (NCI-H460; Homo sapiens, 5-dose, 48 h): 356 nM
- inhibition at 10 µM (NCI-H460; Homo sapiens, one dose 10 µM): 92.9%
- Growth % (NCI-H460; one dose 10 µM): 7.06%
- TGI (SF-268; 5-dose, 48 h): >100 µM
- GI50 (SF-268; Homo sapiens, 5-dose, 48 h): 324 nM
- inhibition at 10 µM (SF-268; Homo sapiens, one dose 10 µM): 66.9%
- Growth % (SF-268; one dose 10 µM): 33.13%
- TGI (SF-539; 5-dose, 48 h): 0.217 µM
- GI50 (SF-539; Homo sapiens, 5-dose, 48 h): 28 nM
- inhibition at 10 µM (SF-539; Homo sapiens, one dose 10 µM): 95.8%
- Growth % (SF-539; one dose 10 µM): 4.17%
- TGI (U251; 5-dose, 48 h): >100 µM
- GI50 (U251; Homo sapiens, U-251, 5-dose, 48 h): 23.6 nM
- inhibition at 10 µM (U251; Homo sapiens, U-251, one dose 10 µM): 88.1%
- Growth % (U251; one dose 10 µM): 11.86%
- TGI (MALME-3M; 5-dose, 48 h): >100 µM
- inhibition at 10 µM (MALME-3M; Homo sapiens, one dose 10 µM): 26%
- Growth % (MALME-3M; one dose 10 µM): 74.02%
- TGI (SK-MEL-28; 5-dose, 48 h): >100 µM
- GI50 (SK-MEL-28; Homo sapiens, 5-dose, 48 h): 15.8 µM
- inhibition at 10 µM (SK-MEL-28; Homo sapiens, one dose 10 µM): 42.3%
- Growth % (SK-MEL-28; one dose 10 µM): 57.74%
- TGI (OVCAR-4; 5-dose, 48 h): >100 µM
- GI50 (OVCAR-4; Homo sapiens, 5-dose, 48 h): 966 nM
- inhibition at 10 µM (OVCAR-4; Homo sapiens, one dose 10 µM): 45.1%
- Growth % (OVCAR-4; one dose 10 µM): 54.92%
- TGI (SK-OV-3; 5-dose, 48 h): >100 µM
- GI50 (SK-OV-3; Homo sapiens, 5-dose, 48 h): 3.45 µM
- inhibition at 10 µM (SK-OV-3; Homo sapiens, one dose 10 µM): 66.6%
- Growth % (SK-OV-3; one dose 10 µM): 33.36%
- inhibition at 10 µM (ACHN; Homo sapiens): 67.3%
- Growth % (ACHN): 32.67%
- GI50 (RXF 393; 5-dose, 48 h): 39.8 nM
- TGI (RXF 393; 5-dose, 48 h): 60 µM
- GI50 (RXF 393; Homo sapiens, RXF 393, 48 h, 5-dose, 48 h): 39 nM
- inhibition at 10 µM (RXF 393; Homo sapiens, one dose 10 µM): 71.2%
- Growth % (RXF 393; one dose 10 µM): 28.8%
- TGI (UO-31; 5-dose, 48 h): >100 µM
- GI50 (UO-31; Homo sapiens, 5-dose, 48 h): 171 nM
- inhibition at 10 µM (UO-31; Homo sapiens, one dose 10 µM): 56.8%
- Growth % (UO-31; one dose 10 µM): 43.2%
- TGI (T-47D; 5-dose, 48 h): >100 µM
- inhibition at 10 µM (T-47D; Homo sapiens, T47D, one dose 10 µM): 25.1%
- Growth % (T-47D; one dose 10 µM): 74.94%
- MG-MID TGI (NCI 60 cell line panel; [2]): 52.48 µM and 52.4 µM
- GI50 (NCI 60 cell line panel; [2]): 223 nM
- GI50 (NCI 60 cell line panel; [3]): 224 nM
- inhibition at 10 µM (NCI 60 cell line panel; Homo sapiens, 60 cell, one dose 10 μM, mean over the 60 cell lines, read-out: mean growth inhibition): 76.3%
- CC50 (NCI 60 cell line panel; Homo sapiens, 60 cell, 5-dose assay, mean-graph midpoint, read-out: MG-MID LC50): 95.5 µM
- CC50 (NCI 60 cell line panel; Homo sapiens, all cell lines except COLO 205 and SK-MEL-5, 5-dose, read-out: LC50 (the source's name)): > 100 µM
- mean Growth % (NCI 60 cell line panel; one dose 10 µM, mean over the cell lines): 23.66%
- inhibition at 10 µM (leukaemia panel): 90.6%
